How the values were obtained:
[1] = tested on: ALP activity in osteoblasts (Saos-2); assay: Alkaline phosphatase (ALP) activity in osteoblasts; type: cell-based, human; settings: for ALP activity (% of control group): Saos-2, 3 days
Description: Since osteoblasts have cell specific alkaline phosphatase activity, the effect of quercetin of the invention on ALP activity in osteoblasts was evaluated as follows: the number of cells, concentration of tested agent, and culture condition were same as those used in MTT experiment of Example 1-2, and cells were harvested after 3 day-incubation. Genistein was used as a comparative agent. ALP activity was evaluated by analysing changes of OD at 405 nm result from hydrolysis of p-nitrophenylphosphate to p-nitrophenol and phosphate (see: Table 1).

ovariectomized rats [2] = assay: Complete blood count in ovariectomized rats; type: in vivo, Female SD (Sprague-Dawley) rats; settings: rat, in vivo
Description: (§1) When test agents were administered, for a certain period of time before and after administration, 1.5 ml of blood was sampled from tail vein using a catheter (B.D Co.: 24 G) and subjected to complete blood count (Coulter Co.: JT) and biochemical analyses of plasma (Crone Co.: Airon® 200). During autopsy, blood was sampled from caudal venae cavae and subjected to the analyses above. And then, each sample was frozen to store for measurement of trabecular bone area of femur and examination of internal organs.
Complete blood count which reflects the condition and abnormality of the body was measured to find out abnormality in test animals caused by administrtion of agents. That is, to find out changes in hematopoiesis of test rats, measured were red blood cell (RBC) count, concentration of hemoglobin (Hb) and hematocrit (Ht) of-blood samples obtained from the rats prior to operation and the rats 10 weeks after administrating agents following operation, and to find out changes in immune system such as inflammation and necrosis of tissues, measured were white blood cell count, lymphocyte count, monocyte count, and granulocyte count (see: Table 7).

ovariectomized rats [3] = assay: Trabecular bone area of tibia in ovariectomized rats;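 on Change Rate (%) of TBA of tibia, of control group: control group rats were ovariectomized and are not the sham group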; type: in vivo, Female SD (Sprague-Dawley) rats; settings: OVX rats, 9 weeks i.p. (E2 1 μg/kg/day; quercetin, genistein 10 mg/kg/day); for Change Rate (%) of TBA of tibia, of control group: control group = 100
Description: (§2) Trabecular bone area (TBA) of lumbar and tibia removed from the rats of each group which was treated with various agents for 9 weeks were measured as follows: that is, using a digitalizer of quantitative image analysis system (Wild Leitz Co.), image of each trabecula was obtained on computer monitor by drawing a contour of the trabecula, and then, using a computer, calculated were average areas of trabeculae within a rectangle of 2×10^6 μm^2 area wherein the width is about ⅔ of the length of growth plate which located underneath of growth plate at proximity of tibia. Also, following the number of trabeculae within the rectangle were obtained, average area was multiplied by the number of trabeculae to obtain trabecular bone area of each sample bone, which was analyzed statistically (see: Table 5).

ovariectomized rats [4] = assay: Trabecular bone area of lumbars in ovariectomized rats;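 on Change Rate (%) of TBA of lumbars, of control group: control group rats were ovariectomized and are not the sham group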; type: in vivo, Female SD (Sprague-Dawley) rats; settings: OVX rats, 9 weeks i.p. (E2 1 μg/kg/day; quercetin, genistein 10 mg/kg/day); for Change Rate (%) of TBA of lumbars, of control group: control group = 100
Description: as §2
TBAs of lumbars removed from the animal treated with test agents for 9 weeks were measured employing the same method above (see: Table 6).

ovariectomized rats [5] = assay: Biochemical parameters in plasma of ovariectomized rats; type: in vivo, Female SD (Sprague-Dawley) rats; settings: rat, in vivo
Description: as §1
Since blood reflects the condition of body, safety of quercetin in the body was evaluated by measuring biochemical parameters: that is, blood samples were obtained from the rat prior to operation, one week after operation, and 10 weeks after operation, and measured were levels of alkaline phosphatase (ALP), calcium, inorganic phosphate, blood urea nitrogen (BUN), creatinin, total cholesterol, HDL-cholesterol and LDL-cholesterol (see: Table 8).

[6] = tested on: human osteoblast-like cell line Saos-2; assay: Cell proliferation of Saos-2 cells, MTT method; type: cell-based; settings: for MTT assay (% of control group): Saos-2, 3 days
Description: Saos-2 cell line which has similar properties to osteoblasts was obtained from Korean Cell Line Bank affiliated to the Cancer Research Institute of School of Medicine, Seoul National University.
Saos-2 cells were seeded in a RPMI 1640 medium (Gibco BRL, U.S.A.) supplemented with 10% (v/v) FBS, 100 unit/ml penicillin, 100 gg/ml streptomycin and grown to form a monolayer in an incubator at 37° C. under an environment of 5% (v/v) CO2 and saturated humidity. The culture was fed with fresh medium 2 to 3 times a week and subcultured once a week using 0.25% (w/v) trypsin.
Saos-2 cells were distributed into a 96-well plate (20,000 cells/well) and quercetin in 1% DMSO was added to a final concentration of 10-2 to 10^−9 mg/ml, 6 wells per each concentration. As a control group, cells without quercetin were used, and as a comparative group, the cells treated with various concentrations of genistein, being studied as a therapeutic agent for osteoporosis, were used. Cells were grown in an incubator at 37° C. for 3 days and incubated 4 more hours under the same condition after adding MTT (3-[4,5-dimethylthiazol-2-yl]-2,5-diphenyltetrazolium bromide, Triazolyl Blue) to a concentration of 0.05 mg/ml. Then, purple colored for-mazan formed in proportion to the number of viable cells was dissolved in DMSO and measured OD at 550 nm employing ELISA reader.
Cell proliferation rate (%) was evaluated by calculating the ratio of the OD of quercetin added well to the OD of control well, wherein, average value of ODs from 6 wells treated with the same concentration of quercetin was employed (see: Table 1).
cell proliferation rate (%)={(average value of OD at 550 nm of quercetin-treated wells—average value of OD at 550 nm of empty wells)/average value of OD at 550 nm of control wells}×100

Structure (SMILES): O=c1c(O)c(-c2ccc(O)c(O)c2)oc2cc(O)cc(O)c12 [Quercetin, quercetin]
- ALP activity (% of control group) ([1]; 1 × 10^−2 mg/ml): 106.1 ± 4.3 % of control group
- ALP activity (% of control group) ([1]; 1 × 10^−3 mg/ml): 107.3 ± 1.5 % of control group
- ALP activity (% of control group) ([1]; 1 × 10^−4 mg/ml): 113.5 ± 2.3 % of control group
- ALP activity (% of control group) ([1]; 1 × 10^−5 mg/ml): 116.5 ± 3.7 % of control group
- ALP activity (% of control group) ([1]; 1 × 10^−6 mg/ml): 127.2 ± 3.5 % of control group
- ALP activity (% of control group) ([1]; 1 × 10^−6 mg/ml, listed as quercetin): 127 % of control group
- ALP activity (% of control group) ([1]; 1 × 10^−7 mg/ml): 101.2 ± 3.1 % of control group
- ALP activity (% of control group) ([1]; 1 × 10^−8 mg/ml): 104.4 ± 3.9 % of control group
- ALP activity (% of control group) ([1]; 1 × 10^−9 mg/ml): 98.1 ± 0.0 % of control group
- ALP activation effect relative to genistein ([1]; maximum at 1×10^−6 mg/ml (quercetin) versus 1×10^−4 mg/ml (genistein)): about 100 fold
- Concentration of hemoglobin(Hb) (ovariectomized rats [2]): 16.00 ± 0.30 g/dL
- Granulocyte count (ovariectomized rats [2]): 2.80 ± 0.30 ×10^3 cells/μl
- Hematocrit(Ht) (ovariectomized rats [2]): 43.62 ± 0.83%
- Lymphocyte count (ovariectomized rats [2]): 16.78 ± 3.52 ×10^3 cells/μl
- Monocyte count (ovariectomized rats [2]): 0.65 ± 0.07 ×10^3 cells/μl
- Red blood cell(RBC) count (ovariectomized rats [2]): 7.29 ± 0.15 ×10^6 cells/μl
- White blood cell count (ovariectomized rats [2]): 20.28 ± 3.77 ×10^3 cells/μl
- White blood cell count, before versus after operation (in words) (ovariectomized rats [2]): did not show any changes
- TBA (trabecular bone area) of tibia (ovariectomized rats [3]): 55.52 ± 7.68 ×10^4 μm^2
- Change Rate (%) of TBA of tibia, of control group (ovariectomized rats [3]): 160.34 ± 22.17 %
- Change Rate (%) of TBA of tibia, of control group (ovariectomized rats [3]; listed as quercetin): 160%
- TBA (trabecular bone area) of lumbars (ovariectomized rats [4]): 87.38 ± 4.53 ×10^4 μm^2
- Change Rate (%) of TBA of lumbars, of control group (ovariectomized rats [4]): 129.40 ± 6.71 %
- Change Rate (%) of TBA of lumbars, of control group (ovariectomized rats [4]; listed as quercetin): 129%
- Concentration of ALP in plasma (ovariectomized rats [5]): 232.83 ± 20.27 U/dL
- Concentration of HDL-cholesterol in plasma (ovariectomized rats [5]): 53.38 ± 3.14 mg/dL
- Concentration of LDL-cholesterol in plasma (ovariectomized rats [5]): 24.17 ± 3.13 mg/dL
- Concentration of blood urea nitrogen (BUN) (ovariectomized rats [5]): 17.05 ± 0.60 mg/dL
- Concentration of calcium in plasma (ovariectomized rats [5]): 10.73 ± 0.48 mg/dL
- Concentration of creatinin in plasma (ovariectomized rats [5]): 0.57 ± 0.05 mg/dL
- Concentration of inorganic phosphate in plasma (ovariectomized rats [5]): 6.79 ± 0.66 mg/dL
- Concentration of total cholesterol in plasma (ovariectomized rats [5]): 77.55 ± 5.13 mg/dL
- Cell proliferation by MTT method versus control cells (in words) ([6]; Saos-2, 1×10^−9 to 1×10^−3 mg/ml): did not show any difference from the control cells
- MTT assay (% of control group) ([6]; 1 × 10^−2 mg/ml): 108.6 ± 2.2 % of control group
- MTT assay (% of control group) ([6]; 1 × 10^−2 mg/ml, listed as quercetin): 109 % of control group
- MTT assay (% of control group) ([6]; 1 × 10^−3 mg/ml): 98.3 ± 0.8 % of control group
- MTT assay (% of control group) ([6]; 1 × 10^−4 mg/ml): 96.5 ± 0.8 % of control group
- MTT assay (% of control group) ([6]; 1 × 10^−5 mg/ml): 95.8 ± 1.1 % of control group
- MTT assay (% of control group) ([6]; 1 × 10^−6 mg/ml): 96.0 ± 1.0 % of control group
- MTT assay (% of control group) ([6]; 1 × 10^−7 mg/ml): 98.6 ± 1.0 % of control group
- MTT assay (% of control group) ([6]; 1 × 10^−8 mg/ml): 93.9 ± 0.8 % of control group
- MTT assay (% of control group) ([6]; 1 × 10^−9 mg/ml): 93.1 ± 0.8 % of control group

From patent publication US20040162247A1, “Therapeutic agent or osteoporosis comprising an active ingredient of quercetin derivatives” (priority 2000, published 2004)
